Target: T1, urease (from jack beans) (Canavalia ensiformis, UniProt P07374)
T1 construct: solid urease (from jack beans); lyophilized 5 U/mg for urea assay in serum; purchased Merck article No. 4194753; host or cells: jack beans (natural source)
Assay type: biochemical
Details: comparison of inventive with comparative examples, table 1
Procedure: To evaluate the odor-inhibiting effect of the compositions of the present invention, the inhibition of the activity of urease in the formation of ammonia from urea is determined. The determination is carried out at room temperature. 2 g of the substance to be tested (superabsorbent, composition according to the present invention) are weighed into a 100 ml Erlenmeyer flask. 30 mg of solid urease (from jack beans; lyophilized 5 U/mg for urea assay in serum; Merck, article No. 4194753) is weighed into a 100 ml glass beaker. 50 ml of 0.9% sodium chloride solution in urea (8.56 g/L) are added to the urease. The entire contents of the glass beaker are poured swiftly onto the sample in the Erlenmeyer flask, a diffusion tubelet (Dräger Röhrchen, ammonia 20/a-D, 20-1500 ppm*h, order No. 8101301) is as intended broken open, inserted into a rubber stopper which fits the Erlenmeyer flask and the Erlenmeyer flask is sealed with the stopper such that the open end of the diffusion tubelet points inward. […] The measurement is in each case carried out as a duplicate determination, and the result reported is the average between the two readings which has been rounded to the nearest whole number.

T1 sequence (P07374 whole entry, looked up): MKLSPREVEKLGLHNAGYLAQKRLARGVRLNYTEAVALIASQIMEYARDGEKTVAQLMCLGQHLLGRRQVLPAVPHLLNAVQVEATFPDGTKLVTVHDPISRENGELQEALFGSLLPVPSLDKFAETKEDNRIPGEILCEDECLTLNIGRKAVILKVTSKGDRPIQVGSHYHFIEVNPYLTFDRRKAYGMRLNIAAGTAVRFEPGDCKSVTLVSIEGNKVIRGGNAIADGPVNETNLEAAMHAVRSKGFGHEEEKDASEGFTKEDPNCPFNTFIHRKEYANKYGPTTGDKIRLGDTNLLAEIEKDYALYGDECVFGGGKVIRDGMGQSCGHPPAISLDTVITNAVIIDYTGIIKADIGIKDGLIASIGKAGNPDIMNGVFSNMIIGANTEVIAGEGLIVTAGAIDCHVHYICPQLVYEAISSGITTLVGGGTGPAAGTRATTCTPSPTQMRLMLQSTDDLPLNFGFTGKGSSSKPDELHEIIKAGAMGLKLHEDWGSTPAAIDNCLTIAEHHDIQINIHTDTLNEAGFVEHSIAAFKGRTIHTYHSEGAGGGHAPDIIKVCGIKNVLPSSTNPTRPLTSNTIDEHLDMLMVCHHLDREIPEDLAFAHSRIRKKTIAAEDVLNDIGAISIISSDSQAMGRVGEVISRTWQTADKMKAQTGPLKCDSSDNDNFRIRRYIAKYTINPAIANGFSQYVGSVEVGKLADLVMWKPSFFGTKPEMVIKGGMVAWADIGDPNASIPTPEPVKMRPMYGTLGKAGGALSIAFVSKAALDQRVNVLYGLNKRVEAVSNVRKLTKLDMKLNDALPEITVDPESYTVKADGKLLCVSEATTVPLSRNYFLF

O=CC(=O)O [glyoxylic acid]
odor-inhibiting effect (in words): demonstrates an odor-inhibiting effect

Reference: patent publication US20090012488A1, “Super-Absorber Having Improved Smell-Inhibition” (BASF SE, priority 2006, published 2009)
